Source: patent US11530206B2, “Phenylaminopyrimidine amide autophagy inhibitors and methods of use thereof” (Deciphera Pharmaceuticals, LLC, priority 2019, dated 2022)

Tests used:
ULK kinase [1] = experiment: pATG13 levels of mutant KRas A549 cells after treatment with ULK inhibitors in combination with trametinib (ELISA); assay type: cell-based, human; conditions: A549 (KRAS mutant) lung cancer cells, 250 nM trametinib, overnight, pS318-ATG13
Method: Cellular Inhibition of ULK Kinase Substrate ATG13 Protein pATG13 Levels of Mutant KRas A549 Cells after Treatment with ULK Inhibitors in Combination with Trametinib
(§1) A549 (KRAS mutant) human lung cancer cells (6,000 cells/well) were added to a 384-well tissue-culture treated plate in 50 μL of pre-warmed DMEM medium supplemented with 10% characterized fetal bovine serum (Invitrogen, Carlsbad, Calif.), 100 units/mL penicillin G, and 100 μg/mL streptomycin and allowed to grow overnight at 37° C., 5% CO2, and 95% humidity. The following day, 10 μL of media containing trametinib or DMSO as a control was added to wells. […] A dose response of a test compound (0.6 μL per well) was added. DMSO (0.6 μL) was added to control wells. The plate was briefly shaken to mix wells and then incubated at 37° C. overnight. The next day, the media was aspirated and cells were washed with Dulbecco's Phosphate Buffered Saline (Gibco). Cells were lysed using MPER lysis buffer (Pierce, Rockford, Ill.) containing Halt Phosphatase and Protease Inhibitors (Pierce, Rockford, Ill.) and Phosphatase inhibitor cocktail 2 (Sigma, St. Louis, Mo.) at 4° C. for 10 minutes with shaking.
(§2) Plate wells were washed with ELISA wash buffer. Cell lysate was added to wells and incubated at room temperature for 2 hours. Plate wells were washed with ELISA wash buffer. […] Plate wells were washed with ELISA wash buffer. […] Plate wells were washed with ELISA wash buffer. […] The reaction was stopped with 2N Sulfuric Acid. The plate was analyzed at on a plate reader measuring absorbance at 450 nm and 540 nm (background). Signal was calculated by first subtracting the background absorbance at 540 nm from the absorbance at 450 nm for each well. Next, the background corrected absorbance at 450 nm from blank wells was subtracted from test wells. Data was compared to control wells to determine % ATG13 phosphorylation. GraphPad Prism was used to calculate IC50 values.

LRRK2 kinase = molecular target: T1, LRRK2 kinase (Homo sapiens, UniProt Q5S007); experiment: Biochemical assay for LRRK2 (coupled pyruvate kinase/lactate dehydrogenase assay); conditions: 26.4 nM LRRK2 (residues 970-2528), peptide substrate, 1 mM ATP
T1 construct: purchased Thermo Fisher
Method: Example 138. Biochemical Assay for LRRK2 (SEQ. ID NO: 4)
Activity of LRRK2 kinase was determined spectroscopically using a coupled pyruvate kinase/lactate dehydrogenase assay that continuously monitors the ATP hydrolysis-dependent oxidation of NADH (e.g., Schindler et al. Science (2000) 289: 1938-1942). Assays were conducted in 384-well plates (100 μL final volume) using 26.4 nM LRRK2 (Thermo Fisher), 0.1 mM peptide substrate ([…] (SEQ ID NO: 6)), 1.5 units pyruvate kinase, 2.1 units lactate dehydrogenase, 1 mM phosphoenol pyruvate, 0.28 mM NADH and 1 mM ATP in assay buffer (100 mM Tris, pH 7.5, 15 mM MgCl2, 0.5 mM DTT, 0.004% (w/v) BSA, and 0.004% Triton X-100). Inhibition of LRRK2 was measured by adding serial diluted test compound (final assay concentration of 1% DMSO). A decrease in absorption at 340 nm was monitored continuously for 6 hours at 30° C. on a multi-mode microplate reader (BioTek). The reaction rate was calculated using the 2-3 h time frame. The reaction rate at each concentration of compound was converted to percent inhibition using controls (i.e. reaction with no test compound and reaction with a known inhibitor) and IC50 values were calculated using software routines in Prism (GraphPad software).

ULK kinase [2] = experiment: pATG13 levels of mutant KRas MiaPaCa-2 cells after treatment with ULK inhibitors in combination with trametinib (ELISA); assay type: cell-based, human; conditions: MiaPaCa-2 pancreatic cancer cells, 250 nM trametinib, overnight, pS318-ATG13
Method: as §1, with “MiaPaCa-2” for “A549 (KRAS mutant)”, “pancreatic” for “lung”, “(10000” for “(6,000”, “G, 100 µg/mL streptomycin,” for “G,”, “2.5% Horse Serum” for “100 μg/mL streptomycin”
as §2

ULK1 kinase = molecular target: T2, ULK1 kinase (Homo sapiens, UniProt O75385, E37A/K38A); experiment: Biochemical assay for ULK1.3 (coupled pyruvate kinase/lactate dehydrogenase assay, peptide substrate); conditions: 0.1 nM ULK1 (residues 1-283), 1 mM ATP
T2 construct: purchased Beryllium
T2 sequence (O75385 1-283 E37A/K38A): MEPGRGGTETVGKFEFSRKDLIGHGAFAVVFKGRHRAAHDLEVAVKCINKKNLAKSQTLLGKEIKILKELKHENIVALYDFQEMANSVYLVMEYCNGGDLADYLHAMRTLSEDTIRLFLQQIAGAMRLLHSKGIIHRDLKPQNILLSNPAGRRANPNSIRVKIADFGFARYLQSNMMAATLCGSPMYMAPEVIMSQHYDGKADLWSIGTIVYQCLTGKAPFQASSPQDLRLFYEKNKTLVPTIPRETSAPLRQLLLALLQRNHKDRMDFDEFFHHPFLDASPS
Method: Biochemical Assay for ULK1.3 (SEQ. ID NO: 2)
Inhibition of ULK1 was measured by adding serial diluted test compound (final assay concentration of 1% DMSO). A decrease in absorption at 340 nm was monitored continuously for 6 hours at 30° C. on a multi-mode microplate reader (BioTek). The reaction rate was calculated using the 2-3 h time frame. The reaction rate at each concentration of compound was converted to percent inhibition using controls (i.e. reaction with no test compound and reaction with a known inhibitor) and IC50 values were calculated using software routines in Prism (GraphPad software).

T1 sequence (Q5S007 with tags, fused parts or gaps): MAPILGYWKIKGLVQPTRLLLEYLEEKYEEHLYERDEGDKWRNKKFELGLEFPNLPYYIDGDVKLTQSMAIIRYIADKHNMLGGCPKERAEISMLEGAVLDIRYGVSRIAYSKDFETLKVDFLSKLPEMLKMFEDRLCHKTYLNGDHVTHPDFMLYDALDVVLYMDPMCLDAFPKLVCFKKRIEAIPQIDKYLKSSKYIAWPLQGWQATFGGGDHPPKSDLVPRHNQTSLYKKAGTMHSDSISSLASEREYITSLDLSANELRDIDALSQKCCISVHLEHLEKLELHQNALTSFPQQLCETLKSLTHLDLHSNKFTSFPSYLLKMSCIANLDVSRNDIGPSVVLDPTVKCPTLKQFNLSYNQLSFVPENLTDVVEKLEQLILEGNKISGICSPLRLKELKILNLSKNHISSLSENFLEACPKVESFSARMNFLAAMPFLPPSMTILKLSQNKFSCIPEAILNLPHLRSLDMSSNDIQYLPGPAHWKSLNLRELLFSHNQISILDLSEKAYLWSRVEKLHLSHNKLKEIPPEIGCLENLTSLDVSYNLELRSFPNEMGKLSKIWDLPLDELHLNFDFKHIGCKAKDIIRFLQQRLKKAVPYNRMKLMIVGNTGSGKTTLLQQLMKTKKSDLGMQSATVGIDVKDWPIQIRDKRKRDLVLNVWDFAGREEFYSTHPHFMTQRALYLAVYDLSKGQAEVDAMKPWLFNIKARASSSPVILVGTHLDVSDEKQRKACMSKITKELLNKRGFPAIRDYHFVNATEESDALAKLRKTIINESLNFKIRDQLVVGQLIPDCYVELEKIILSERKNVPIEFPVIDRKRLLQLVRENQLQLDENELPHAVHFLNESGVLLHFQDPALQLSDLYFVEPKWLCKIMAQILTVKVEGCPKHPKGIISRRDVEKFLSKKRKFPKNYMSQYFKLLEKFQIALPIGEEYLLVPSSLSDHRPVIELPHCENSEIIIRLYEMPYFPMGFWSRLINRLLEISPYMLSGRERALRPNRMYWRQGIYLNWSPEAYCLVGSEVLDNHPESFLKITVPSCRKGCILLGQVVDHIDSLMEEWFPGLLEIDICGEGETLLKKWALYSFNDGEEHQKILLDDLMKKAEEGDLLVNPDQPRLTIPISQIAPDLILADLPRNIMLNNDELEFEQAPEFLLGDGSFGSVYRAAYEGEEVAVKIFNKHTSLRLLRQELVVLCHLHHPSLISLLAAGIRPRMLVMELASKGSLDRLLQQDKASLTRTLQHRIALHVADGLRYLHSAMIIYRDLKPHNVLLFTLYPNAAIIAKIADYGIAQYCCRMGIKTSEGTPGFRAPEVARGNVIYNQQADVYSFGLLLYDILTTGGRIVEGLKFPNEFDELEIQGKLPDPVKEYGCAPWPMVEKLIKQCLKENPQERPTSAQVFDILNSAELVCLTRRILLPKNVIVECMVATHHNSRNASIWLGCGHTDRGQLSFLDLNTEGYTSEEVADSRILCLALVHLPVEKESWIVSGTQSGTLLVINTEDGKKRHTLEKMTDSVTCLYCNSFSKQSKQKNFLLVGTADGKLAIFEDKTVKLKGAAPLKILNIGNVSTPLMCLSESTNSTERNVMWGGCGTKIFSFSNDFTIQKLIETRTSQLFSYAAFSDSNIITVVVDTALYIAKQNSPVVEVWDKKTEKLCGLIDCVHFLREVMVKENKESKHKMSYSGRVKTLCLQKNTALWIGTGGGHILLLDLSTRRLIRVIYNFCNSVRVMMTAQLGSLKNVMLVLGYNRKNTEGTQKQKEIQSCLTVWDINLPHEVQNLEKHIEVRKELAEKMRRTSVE

| SMILES | IC50 (ULK kinase [1]) [nM] | IC50 (LRRK2 kinase) [nM] | IC50 (ULK kinase [2]) [nM] | IC50 (ULK1 kinase) [nM] |
| --- | --- | --- | --- | --- |
| CCc1cc(N2CCN(C)CC2=O)ccc1Nc1ncc(C(F)(F)F)c(NCCCN2CCCOC2=O)n1 [Example 56] |  | 100 to 300 |  | 25 to 100 |
| CCc1cc(N2CCN(C)CC2)ccc1Nc1ncc(C2CC2)c(NCCCN2CCCOCC2=O)n1 [Example 61] |  | > 600 |  | > 500 |
| CCc1cc(N2CCN(C)CC2)c(F)cc1Nc1ncc(C(F)(F)F)c(NCCCN2CCCOCC2=O)n1 [Example 64] |  | 1 to 100 |  | 100 to 500 |
| CCc1cc(N2CC3CCC(C2)N3C)ccc1Nc1ncc(C(F)(F)F)c(NCCCN2CCCCC2=O)n1 [Example 68] | 10 to 100 | 100 to 300 | 10 to 100 | 1 to 25 |
| Cc1cc(N2C[C@H]3C[C@@H]2CO3)ccc1Nc1ncc(C(F)(F)F)c(NCCCN2CCOCCC2=O)n1 [Example 78] |  | 100 to 300 |  | 100 to 500 |
| CN1CCN(c2ccc(Nc3ncc(Cl)c(NCCCN4CCOCCC4=O)n3)c(C3CC3)c2)CC1 [Example 82] | 100 to 300 |  | 100 to 300 | 25 to 100 |
| CC(C)c1cc(N2CCN(C)CC2)ccc1Nc1ncc(Br)c(NCCCN2CCOCCC2=O)n1 [Example 87] | 300 to 600 | 300 to 600 | 300 to 600 | 25 to 100 |
| CC(C)c1cc(N2CCN(C)CC2)ccc1Nc1ncc(Cl)c(NCCCN2CCOCCC2=O)n1 [Example 88] | 300 to 600 |  | 100 to 300 | 25 to 100 |
| CCc1cc(N2CCN(C)CC2)ccc1Nc1cc(NCCCN2CCOCCC2=O)c(C(F)(F)F)cn1 [Example 92] | 300 to 600 | > 600 | 100 to 300 | 1 to 25 |
| CCc1cc(N2CCN(C)CC2)ccc1Nc1ncc(Br)c(NCCCN2CCCOCC2=O)n1 [Example 100] | 100 to 300 |  | 100 to 300 | 25 to 100 |
| CN1CCN(c2ccc(Nc3cc(NCCCN4CCOCCC4=O)c(C(F)(F)F)cn3)c(C3CC3)c2)CC1 [Example 101] | 300 to 600 |  | > 600 | 1 to 25 |
| CN1CCN(c2ccc(Nc3cc(NCCCN4CCCOC4=O)c(C(F)(F)F)cn3)cc2)CC1 [Example 102] | 100 to 300 |  | 100 to 300 | 1 to 25 |
| CN1CCN(c2ccc(Nc3cc(NCCCN4CCCCC4=O)c(C(F)(F)F)cn3)cc2)CC1 [Example 103] | 10 to 100 |  | 10 to 100 | 1 to 25 |
| CN1CCN(c2ccc(Nc3cc(NCCCN4CCOCCC4=O)c(C(F)(F)F)cn3)cc2)CC1 [Example 110] | 100 to 300 |  | 10 to 100 | 1 to 25 |
| CCc1cc(N2C[C@H]3C[C@@H]2CN3C)ccc1Nc1ncc(C(F)(F)F)c(NCCCN2CCCOC2=O)n1 [Example 123] | 10 to 100 | 100 to 300 |  | 1 to 25 |
| CN1C2CCC1CN(c1ccc(Nc3ncc(C(F)(F)F)c(NCCCN4CCCCC4=O)n3)c(C3CC3)c1)C2 [Example 130] | 300 to 600 |  | 300 to 600 | 25 to 100 |
| CCc1cc(N2CC3CCC(C2)N3)ccc1Nc1ncc(C(F)(F)F)c(NCCCN2CCOCCC2=O)n1 [Example 150] | 100 to 300 |  | 10 to 100 | 1 to 25 |

The remaining lines, values ahead:

| IC50 (ULK kinase [1]) [nM] | IC50 (LRRK2 kinase) [nM] | IC50 (ULK kinase [2]) [nM] | IC50 (ULK1 kinase) [nM] | SMILES |
| --- | --- | --- | --- | --- |
| 100 to 300 | 300 to 600 | 10 to 100 | 1 to 25 | CC(C)c1cc(N2CCN(C)CC2)ccc1Nc1ncc(C(F)(F)F)c(NCCCN2CCCCC2=O)n1 [Example 33] |
| 100 to 300 | 1 to 100 | 100 to 300 | 25 to 100 | CN1CCN(c2cc(C3CC3)c(Nc3ncc(C(F)(F)F)c(NCCCN4CCCCC4=O)n3)cc2F)CC1 [Example 35] |
|  | 100 to 300 |  | 100 to 500 | CCc1cc(N2CC[C@H](C#N)C2)ccc1Nc1ncc(C(F)(F)F)c(NCCCN2CCCCC2=O)n1 [Example 48] |
|  | 100 to 300 |  | 100 to 500 | CN1CCN(c2ccc(Nc3ncc(C(F)(F)F)c(NCCCN4CCCCC4=O)n3)c(C3CC3)c2)CC1=O [Example 49] |
| 100 to 300 | 100 to 300 | 10 to 100 | 1 to 25 | CCc1cc(N2CCCN(C)CC2)ccc1Nc1ncc(C(F)(F)F)c(NCCCN2CCOCCC2=O)n1 [Example 79] |
|  | 100 to 300 |  | 100 to 500 | CCc1cc(N2CC[C@@H](C#N)C2)ccc1Nc1ncc(C(F)(F)F)c(NCCCN2CCCCC2=O)n1 [Example 93] |
| 10 to 100 | 100 to 300 | 10 to 100 | 1 to 25 | O=C1CCOCCN1CCCNc1nc(Nc2ccc(N3CCN4CCC[C@@H]4C3)cc2C2CC2)ncc1C(F)(F)F [Example 107] |
|  | 100 to 300 |  | 1 to 25 | CN1CCN(c2ccc(Nc3ncc(C(F)(F)F)c(NCCCN4CCCOC4=O)n3)c(C3CCCC3)c2)CC1 [Example 111] |
| 100 to 300 | 100 to 300 | 100 to 300 | 1 to 25 | CN1CCN(c2ccc(Nc3ncc(C(F)(F)F)c(NCCCN4CCOCCC4=O)n3)c(C3CCCC3)c2)CC1 [Example 112] |
|  | 100 to 300 |  | 1 to 25 | CN1CCN(c2ccc(Nc3ncc(C(F)(F)F)c(NCCCN4CCCCC4=O)n3)c(C3CCCC3)c2)CC1 [Example 113] |
|  | 1 to 100 |  | 25 to 100 | CCc1cc(N2CCN(C)C(=O)C2)ccc1Nc1ncc(C(F)(F)F)c(NCCCN2CCCOC2=O)n1 [Example 114] |
|  | 100 to 300 |  | 100 to 500 | CCc1cc(N2CCN(C)C(=O)C2)ccc1Nc1ncc(C(F)(F)F)c(NCCCN2CCOCCC2=O)n1 [Example 115] |
| 100 to 300 | 1 to 100 | 10 to 100 | 25 to 100 | CN1C[C@@H]2C[C@H]1CN2c1ccc(Nc2ncc(C(F)(F)F)c(NCCCN3CCOCCC3=O)n2)c(C2CC2)c1 [Example 116] |
|  | 1 to 100 |  | 25 to 100 | CN(C)C1CN(c2ccc(Nc3ncc(Br)c(NCCCN4CCCCC4=O)n3)c(C3CC3)c2)C1 [Example 118] |
| 100 to 300 |  | 10 to 100 | 1 to 25 | CN(C)CC1CN(c2ccc(Nc3ncc(C(F)(F)F)c(NCCCN4CCOCCC4=O)n3)c(C3CC3)c2)C1 [Example 137] |
